From US10857180B2, “Pharmaceutical composition for improving health, cure abnormalities and degenerative disease, achieve anti-aging effect of therapy and therapeutic effect on mammals and method thereof” (priority 2014, dated 2020)
Values after ≈ are worked out from the molar mass of the structure shown. Where two headings read alike, the source gives them in different places.

Assays:
[1] = tested on: renal cell carcinoma (PA) cells; experiment: Viability of PA tumor cells (trypan blue, crystal violet; live-dead); type: cell-based, rat; conditions: for IC50: Rattus norvegicus; for dose for 50% live, 50% dead: natural isotope distribution
Text: To make the analysis, the cell suspension, after it was exposed to the action of materials, in a volume of 20 mcl was mixed with 20 mcl of trypan blue solution and resuspended. The obtained solution was placed in a hemocytometer chamber for visual analysis and quantitative estimation of the cells. To make the quantitative estimation of the cells, they were separated from the substrate using Versene solution and counted by staining cells with trypan. A change in the color of a cell was indicative of the violation of intactness of the cell membrane, and the more pronounced was the coloration, the less viable the cell was. […] They are easily distinguishable from dark damaged cells and easily identified with ordinary light microscope.
Alluding to the above, staining the Cells with Crystal Violet and their Quantitative Analysis will be discussed. Utilization of this method of assessment in the experiment makes it possible to quantify cells classified according to the living-dead criterion. The method is based on statistical evaluation of cells able to adhere to the substrate (to the plastic plate), cells capable of further proliferation. The criterion of the evaluation is the degree of optical permeability of a well with the cell sediment for a luminous flux of a certain wavelength. Removal of the culture medium from the wells is also accompanied by removal of non-adhering and unstained cells from the substrate, and adhesion and staining of the residue left on the substrate provides a quantitative characteristic of the number of cells which are capable of further division and multiplication.
Alluding to the above, viable tumor cells capable of further proliferation were fixed to the plastic surface and stained blue (after they were exposed to the action of components with natural distribution of isotopes) using the dye powder dissolved in 70% methanol solution. After 10 minutes the dye was removed from the wells with a micropipette and the cells were thoroughly rinsed three times with clean running water. The cell sediment fixed by the dye was dissolved with ethanol followed by determination of its concentration (which is indicative of the number of viable cells) and fixed via multi-well spectrophotometer with an excitation wave 540 nm in length.
Analysis of the effect of all components on the renal cell carcinoma (PA) was conducted to determine the relationship between the amount of the preparation (concentration characteristics of the component) and the quantitative characteristics of the cells. Assessment of the effect of the components was carried out on 2 concentration models with 30 and 300 thousand original tumor cells. After the cells were cultured, cell suspensions were prepared in the plates with the culture medium and an effect of the preparations (in various concentrations) on the tumor cells was assessed. The experiment was started with the concentration of 10 mg of the active substance per 1 ml of the solvent (saline with 5% glucose).
After the action of components with natural isotope distribution on PA tumor cells (in all 9 concentration dilutions of the preparations), they were stained with trypan blue. Staining cells (after the effect of the components) in blue is indicative of the respiratory impairment of the cells, which allows of classifying them as non-viable tumor units. The part of the cells remained uncolored is characterized as viable with the ability for further proliferation. […] The assessment was performed on 14 plates with 300 thousand cells in each well by counting the number of viable cells in the Goryaev chamber. Quantitative analysis of the cells was performed visually every 10 hours of the experiment.

[2] = tested on: normal rat kidney cells (NRK cell line); experiment: Effect on normal rat kidney cells versus Doxorubicin; conditions: for live cells: 16 mcg/ml
Text: An immortalized cell line is a stable, capable of unlimited proliferation cell line that consists of cells with […] in culture.

[3] = tested on: stem cells derived from rat fibroblasts (RF); type: cell-based
[4] = tested on: normal rat kidney cells (NRK cell line); experiment: Scratch assay, NRK cells; type: cell-based; conditions: Doxorubicin 15 ng/ml; control 30 hours
Procedure: (§2) The cells of A-549, A-431, NRK, HaCaT, MM-4, normal fibroblasts (derived from the Bank of Cell Lines from human and animal tissues, R. E. Kavetsky Institute of Experimental Pathology, Oncology and Radiobiology, National Academy of Sciences of Ukraine) were cultured in complete culture medium RPMI 1640/DMEM (PAA, Austria) (depending on the cell type) supplemented with 10% fetal calf serum (PAA, Austria) and incubated in 5% CO2 humidified atmosphere at 37° C. The culture medium was replaced in 2 to 3 days and the cells were passaged in 4 to 5 days.
(§3) Analysis of the influence of the components under study on the cell migration rate was performed using the scratch assay method. Cells (5×10^4/well) were seeded into the wells of a 12-well plate in 2 repeats in RPMI-1640/DMEM culture medium supplemented with 10% PBS, 40 mcg/ml of gentamicin and incubated in 5% CO2 humidified atmosphere at 37° C. for 24 hours.
(§4) The plate was incubated in a CO2 incubator for additional 48 hours. After the cells formed a dense monolayer it was damaged (by making a “scratch”) and the growth medium was replaced to remove cell debris and smooth the edges of the “scratch.” The rate of cell migration was analyzed using an inverted microscope and by photographing cells in the area of injury. The migration activity of cells was fixed at several time points (depending on the cell line analyzed). The microphotomicrographs were analyzed and the cell incubation time needed to restore the monolayer was determined for all experimental groups.

[5] = tested on: healthy human skin cells (HaCaT cell line); experiment: Scratch assay, HaCaT cells; type: cell-based; conditions: Doxorubicin 15 ng/ml and 5 ng/ml
Procedure: as §2
(§5) Analysis of the influence of the components under study on the cell migration rate was performed using the scratch assay method. […]
(§6) The plate was incubated in a CO2 incubator for additional 48 hours. After the cells formed a dense monolayer it was damaged (by making a “scratch”) and the growth medium was replaced to remove cell debris and smooth the edges of the “scratch.” The rate of cell migration was analyzed using an inverted microscope and by photographing cells in the area of injury. The migration activity of cells was fixed at several time points (depending on the cell line analyzed). The microphotomicrographs were analyzed and the cell incubation time needed to restore the monolayer was determined for all experimental groups. […]

[6] = tested on: human melanoma tumor cells (MM-4 cell line); experiment: Scratch assay, MM-4 cells; type: cell-based; conditions: Doxorubicin at 2 concentrations (0.1 and 0.01 mcg/ml)
Procedure: as §2, §5, §6

A-549 cell line = experiment: Scratch assay, A-549 cells
Procedure: as §2, §3, §4

[7] = tested on: human epidermoid carcinoma cells (A-431 cell line); experiment: Scratch assay, A-431 cells
Procedure: as §2, §5, §6

[8] = tested on: renal cell carcinoma (PA) cells; experiment: Immunocytochemistry (H-Score) of PA cells; type: cell-based, rat
Procedure: When making the immunocytochemistry (ICC) assay, cells on microscope glasses (cytospin preparations) were fixed in the solution (methanol+acetone 1:1) for 2 hours at t 20° C. and incubated with 1% solution of bovine serum albumin (BSA) for 20 minutes. Then the monoclonal antibodies—CD44 (Diagnostic BioSystems), E-cadherin (ThermoScientific), N-cadherin (NeoMarker, BioLegend)—were applied for 60 minutes, after which the Poly Vue imaging system conjugated with peroxidase was used and the enzyme activity was detected using diaminobenzidine (ThermoScientific) as a substrate.
(§1) After the immunocytochemical reaction the preparations were washed with water and counterstained with hematoxylin-eosin (for 15-30 seconds). The results were analyzed by counting cells with expression (brown colored cells), using a light microscope and were assessed using the classical H-Score method: S=1×A+2×B+3×C, where S is the H-Score index giving a range of 0 (protein is not detected) to 300 (high-level expression in 100% of the cells); A is the percentage of weakly stained cells, B is the percentage of moderately stained cells and C is the percentage of strongly stained cells.

[9] = tested on: normal rat kidney cells (NRK line); experiment: Immunocytochemistry of NRK cells; type: cell-based
Procedure: When making the immunocytochemistry (ICC) assay, cells on microscope glasses (cytospin preparations) were fixed in the solution (methanol+acetone 1:1) for 2 hours at t 20° C. and incubated with 1% solution of bovine serum albumin (BSA) for 20 minutes. Then the monoclonal antibodies-CD44 (Diagnostic BioSystems), E-cadherin (ThermoScientific), N-cadherin (NeoMarker, BioLegend), SLUG (GeneTex)—were applied for the time period specified by the manufacturer (30 to 60 minutes), after which the Poly Vue imaging system conjugated with peroxidase was used and the enzyme activity was detected using diaminobenzidine (ThermoScientific) as a substrate. After the immunocytochemical reaction the preparations were washed with water and counterstained with hematoxylin-eosin (for 15 to 30 seconds).
as §1, with “The” for “After the immunocytochemical reaction the preparations were washed with water and counterstained with hematoxylin-eosin (for 15-30 seconds). The”, “cells)” for “cells),”, “microscope,” for “microscope”, “staining” for “stained”

[10] = Zn sulfate 80 mcg/ml, trypan blue

COc1cccc2c1C(=O)c1c(O)c3c(c(O)c1C2=O)C[C@@](O)(C(=O)CO)C[C@@H]3O[C@H]1C[C@H](N)[C@H](O)[C@H](C)O1 [Doxorubicin]
dead cells ([1]; Doxorubicin 0.64 mcg/ml): 39%
live cells ([1]; Doxorubicin 0.64 mcg/ml): 61%
dead cells ([1]; Doxorubicin 16 mcg/ml): 95%
live cells ([1]; Doxorubicin 16 mcg/ml): 5%
IC50 ([1]; crystal violet and trypan blue, read-out: concentration that kills 50% of the tumor cells): 3.2 µg/mL (≈ 5.89 µM)
IC50 ([1]; read-out: dose that killed 50% of tumor cells): 3.2 µg/mL (≈ 5.89 µM)
effect on normal NRK cells ([2]; 3 to 0.01 mcg/ml): causing death of normal NRK cells
live cells ([2]; within 30 min): live cells are virtually absent
live cells ([2]; within 48 hours): live cells are absent
effect on normal NRK cells ([2]; 400 to 16 mcg/ml, 48 hours): complete death
time of restoration of the cell interval ([3]; Doxorubicin 15 ng/ml or 5 ng/ml): > 72 h
death of cells ([3]; Doxorubicin 15 ng/ml, within 96 hours after administration): 95%
time of restoration of the damaged monolayer [4]: 72 h
cell migration rate [5]: inhibition of the cell migration rate
period of closing of the gap [6]: 48 h
time of restoration of the cell monolayer (A-549 cell line; Doxorubicin 0.02 mcg/ml): 60 h
time of restoration of the cell monolayer (A-549 cell line; Doxorubicin 0.2 mcg/ml): < 24 h
time of full restoration of the cell monolayer (A-549 cell line; Doxorubicin (2 mcg/ml per FIG. 113-116)): 24 h
time for the cell monolayer repair ([7]; Doxorubicin 0.02 mg/ml): 48 h
time to close up the cellular gap ([7]; Doxorubicin 0.1 mcg/ml, control 48 hours): 45 h

O=S(=O)([O-])[O-].[Mg+2] [Mg]
dose for 50% kill, times as high as Doxorubicin EBEWE [1]: 1600 times
dose for 50% live, 50% dead [1]: about 5 mg

O=S(=O)([O-])[O-].[Zn+2] [Zn]
dose for 50% kill, times as high as Doxorubicin EBEWE [1]: 100 times
dead tumor cells ([1]; Zn sulfate 16 mcg/ml): 7%
live tumor cells ([1]; Zn sulfate 16 mcg/ml): 93%
dead tumor cells [1, 10]: 75%
live tumor cells [1, 10]: 25%

O=S(=O)([O-])[O-].[64Zn+2] [^64Zn—Z2]
CD44 marker positive cells, H-Score scale ([8]; 3.2 mcg/ml): 118 units
N-cadherin level ([8]; ^64Zn—Z2 3.2 and 0.128 mcg/ml): does not change
number of E-cadherin-positive cells ([8]; ^64Zn—Z2 3.2 and 0.128 mcg/ml): grows
E-cadherin-positive cells, H-Score scale ([8]; dose D1 0.128 mcg/ml): 300
phenotype of normal cells [9]: has not changed

[Cl-].[K+] [K]
dose for 50% live, 50% dead [1]: about 2 mg
